Data as given in PubChem BioAssay AID1195 (EPA DSSTox, 2008).

System: human maximum recommended daily dose, FDA database
Test: DSSTox (FDAMDD) FDA Maximum (Recommended) Daily Dose Database
Settings: active compounds read low
From the text: The Food and Drug Administration (FDA) Center for Drug Evaluation and Research, Office of Pharmaceutical Science, Informatics and Computational Safety Analysis Staff's Maximum Recommended Daily Dose (FDAMDD) database contains values for over 1200 pharmaceuticals listed in Martindale: The Extra Pharmacopoeia (1973, 1983, and 1993) and The Physicians' Desk Reference (1995 and 1999). Some classes of chemicals were excluded from the FDAMDD database due to their unsuitability for most QSAR modeling programs. These were inorganic chemicals, high molecular weight polymers (>5000 Daltons), fibers, salts, mixtures of organic chemicals, and small molecules (<100 Daltons). FDAMDD is the non-proprietary portion of the database that was used in the QSAR analysis reported in the Main Citation. DSSTox FDAMDD has fewer substance records than the original MRDD Source database due to consolidation of partial structures (i.e., complexed entities) into a single record and elimination of duplicate entries. DSSTox FDAMDD also differs from the MRDD Source database in presenting complete structural information pertaining to the actual salt or complexed form corresponding to the listed ChemicalName and CASRN. According to the Source authors, there are a number of cases where multiple related forms or derivatives of a drug were listed as separate records but were assumed to fall under the same clinical toxicity assessment and, therefore, assigned the same Dose_MRDD_mg activity value. For the DSSTox FDAMDD, we have labeled these derivatives in the ChemClass_MRDD_grouping field and provide their counts in the ChemicalReplicateCount field to highlight their special nature.
Maximum recommended daily dose (or maximum recommended therapeutic dose) values were determined from pharmaceutical clinical trials that employed an oral route of exposure and daily treatments, usually for 3-12 months. Drugs were given as single or divided dose treatment regimens to achieve desired pharmacological effects. Roughly 5% of the pharmaceuticals in the FDAMDD data file were antineoplastics and anesthetics and were administered intravenously and/or intramuscularly. When separate MRDDs were reported for different routes of exposure, only the oral MRDD was included in the data file and only MRDD values reported for the average adult patient were used. Pharmaceuticals that are administered orally are usually tested over a limited range of doses and have MRDDs reported as mg/day. The mg/day unit was converted to mg/kg-body weight (bw)/day based upon an average adult weighing 60 kg. In contrast, the dose unit for most antineoplastic drug MRDDs is reported as mg/m2 which was converted to mg/kg-bw/day using the formula mg/kg-bw/day = mg/m2/37 for an average adult. Additionally, a few drugs had MRDDs reported in parts per million (ppm) which were converted to mg/kg-bw/day on the basis that 1000 ppm equals 25 mg/kg-bw/day for an average 60 kg adult. Activity Score is mapping of LOG10(1/Dose_MRDD_mmol) spanning activity range [MIN, MAX] onto Integer 1-100 Activity range, where 100 is highest potency and 1 is lowest potency: ActivityScore = 100 * INTEGER[(LOGINV_MRDD_mmol - MIN)/(MAX […] MIN)]. Activity Outcome is "active" for all substances, since Dose_MRDD_mmol is reported for all substances.

[1] = TherapeuticCategory: skeletal muscle relaxant
[2] = TherapeuticCategory: antibacterial
[3] = TherapeuticCategory: antihistaminic
[4] = TherapeuticCategory: narcotic analgesic
[5] = TherapeuticCategory: antineoplastic
[6] = TherapeuticCategory: adrenergic
[7] = TherapeuticCategory: antihypertensive
[8] = TherapeuticCategory: anticonvulsant

CC(=O)Oc1ccc(C(c2ccc(OC(C)=O)cc2)c2ccccn2)cc1
maximum recommended daily dose (mmol/kg-bw/day) (TherapeuticCategory: cathartic): 0.000692

CNS(=O)(=O)CCc1ccc2[nH]cc(C3CCN(C)CC3)c2c1
maximum recommended daily dose (mmol/kg-bw/day) (TherapeuticCategory: antimigraine, vasoconstrictor): 0.000248

Cc1cc(C)cc(OCC2CNC(=O)O2)c1 (stereo unspecified)
maximum recommended daily dose (mmol/kg-bw/day) [1]: 0.484

CC1CCC(C(C)C)C(O)C1 (stereo unspecified)
maximum recommended daily dose (mmol/kg-bw/day) (TherapeuticCategory: topical antipruritic): 0.0128

C#C[C@]1(O)CC[C@H]2[C@@H]3CCC4=C(CCC(=O)C4)[C@H]3CC[C@@]21C
maximum recommended daily dose (mmol/kg-bw/day) (TherapeuticCategory: progestogen): 0.00224

CCC(=O)OCC(=O)[C@@]1(OC(=O)CC)[C@H](C)C[C@H]2[C@@H]3CCC4=CC(=O)C=C[C@]4(C)[C@@]3(F)[C@@H](O)C[C@@]21C
maximum recommended daily dose (mmol/kg-bw/day) (TherapeuticCategory: glucocorticoid, anti inflammatory): 0.000297

C[C@]1(Cn2ccnn2)[C@H](C(=O)O)N2C(=O)C[C@H]2S1(=O)=O
maximum recommended daily dose (mmol/kg-bw/day) [2]: 0.0833

BrC(Br)Br
maximum recommended daily dose (mmol/kg-bw/day) (TherapeuticCategory: sedative, hypnotic, antitussive): 0.0989

CN1CCN(CC(=O)N2c3ccccc3C(=O)Nc3cccnc32)CC1
maximum recommended daily dose (mmol/kg-bw/day) (TherapeuticCategory: antiulcerative): 0.00711

O=C(c1ccccc1)c1ccc2n1CCC2C(=O)O (stereo unspecified)
maximum recommended daily dose (mmol/kg-bw/day) (TherapeuticCategory: analgesic, anti inflammatory): 0.00979

c1ccc2c(c1)Sc1ccccc1N2CC1CN2CCC1CC2 (stereo unspecified)
maximum recommended daily dose (mmol/kg-bw/day) [3]: 0.000518

C=C[C@H]1CN2CC[C@H]1C[C@@H]2[C@@H](O)c1ccnc2ccc(OC)cc12
maximum recommended daily dose (mmol/kg-bw/day) (TherapeuticCategory: anthiarrythmic): 0.0308

NC[C@H]1O[C@H](O[C@H]2[C@H](O)[C@@H](O[C@H]3O[C@H](CO)[C@@H](O)[C@H](N)[C@H]3O)[C@H](N)C[C@@H]2N)[C@H](N)C[C@@H]1O
maximum recommended daily dose (mmol/kg-bw/day) [2]: 0.0193

Oc1ccc2c3c1O[C@H]1[C@@H](O)CC[C@@]4(O)[C@@H](C2)N(CC2CCC2)CC[C@]314
maximum recommended daily dose (mmol/kg-bw/day) [4]: 0.0028

C[C@]12CC[C@H](O)CC1=CC[C@@H]1[C@@H]2CC[C@]2(C)C(=O)CC[C@@H]12
maximum recommended daily dose (mmol/kg-bw/day) (TherapeuticCategory: androgen): 0.0115

CC(CN1c2ccccc2Sc2ccccc21)N(C)C (stereo unspecified)
maximum recommended daily dose (mmol/kg-bw/day) [3]: 0.00587

CC1NCCOC1c1ccccc1 (stereo unspecified)
maximum recommended daily dose (mmol/kg-bw/day) (TherapeuticCategory: anorexic, CNS stimulant): 0.00705

N[C@@H]1[C@@H](O)[C@@H](O[C@@H]2[C@@H](O)[C@H](O[C@H]3O[C@H](CO)[C@@H](O)[C@H](O)[C@H]3N)[C@@H](N)C[C@H]2N)O[C@H](CO)[C@H]1O
maximum recommended daily dose (mmol/kg-bw/day) [2]: 0.031

COc1ccc(CCN2CCC(Nc3nc4ccccc4n3Cc3ccc(F)cc3)CC2)cc1
maximum recommended daily dose (mmol/kg-bw/day) (TherapeuticCategory: antiallergic, antiarrhythmic): 0.000364

N[C@@H](C(=O)N[C@@H]1C(=O)N2C(C(=O)O)=C(Cl)CS[C@H]12)c1ccccc1
maximum recommended daily dose (mmol/kg-bw/day) [2]: 0.068

Cn1c(=O)c2c(ncn2CCOC(=O)C(C)(C)Oc2ccc(Cl)cc2)n(C)c1=O
maximum recommended daily dose (mmol/kg-bw/day) (TherapeuticCategory: bronchodilator): 0.0297

NS(=O)(=O)c1cc2c(cc1Cl)NC(C1CC3C=CC1C3)NS2(=O)=O (stereo unspecified)
maximum recommended daily dose (mmol/kg-bw/day) (TherapeuticCategory: diuretic, antihypertensive): 0.000256

CCC1(c2ccccc2)C(=O)NC(=O)N(C)C1=O (stereo unspecified)
maximum recommended daily dose (mmol/kg-bw/day) (TherapeuticCategory: anticonvulsant, sedative, hypnotic): 0.0406

CN1CCC(=C2c3ccccc3CCc3cccnc32)CC1
maximum recommended daily dose (mmol/kg-bw/day) [3]: 0.000115

Nc1nc(Cl)nc2c1ncn2[C@H]1C[C@H](O)[C@@H](CO)O1
maximum recommended daily dose (mmol/kg-bw/day) [5]: 0.000315

NC(=S)N=Nc1ccc(NN=C(N)N)cc1
maximum recommended daily dose (mmol/kg-bw/day) [2]: 0.000704

OC[C@H]1O[C@](O)(CO)[C@@H](O)[C@@H]1O
maximum recommended daily dose (mmol/kg-bw/day) (TherapeuticCategory: fluid and nutrient replenisher, ferric form as hematinic): 2.31

NS(=O)(=O)c1cc(C(=O)O)cc(N2CCCC2)c1Oc1ccccc1
maximum recommended daily dose (mmol/kg-bw/day) (TherapeuticCategory: diuretic): 0.000552

C=CC1=C(C(=O)O)N2C(=O)[C@@H](NC(=O)/C(=N\OCC(=O)O)c3csc(N)n3)[C@H]2SC1
maximum recommended daily dose (mmol/kg-bw/day) [2]: 0.0293

COC(=O)[C@H](c1ccccc1Cl)N1CCc2sccc2C1
maximum recommended daily dose (mmol/kg-bw/day) (TherapeuticCategory: antithrombotic): 0.00388

CN1CCc2cccc3c2[C@H]1Cc1ccc(O)c(O)c1-3
maximum recommended daily dose (mmol/kg-bw/day) (TherapeuticCategory: emetic): 0.00625

S=P(N1CC1)(N1CC1)N1CC1
maximum recommended daily dose (mmol/kg-bw/day) [5]: 0.00211

CNC(C)(C)Cc1ccccc1
maximum recommended daily dose (mmol/kg-bw/day) [6]: 0.00613

C[C@]12CCC(=O)C=C1C=C[C@@H]1[C@@H]2CC[C@@]2(C)[C@H]1CC[C@@]2(O)CCC(=O)O
maximum recommended daily dose (mmol/kg-bw/day) (TherapeuticCategory: diuretic): 0.0371

COCC(=O)O[C@]1(CCN(C)CCCc2nc3ccccc3[nH]2)CCc2cc(F)ccc2[C@@H]1C(C)C
maximum recommended daily dose (mmol/kg-bw/day) (TherapeuticCategory: antihypertensive, Ca channel blocker): 0.00337

CCC(=O)c1ccc(O)cc1
maximum recommended daily dose (mmol/kg-bw/day) (TherapeuticCategory: pituitary gonadotrophic hormone inhibitor): 0.333

CCOC(=O)[C@H](CCc1ccccc1)N[C@@H](C)C(=O)N1CCC[C@H]1C(=O)O
maximum recommended daily dose (mmol/kg-bw/day) [7]: 0.00177

CNC[C@H](O)[C@@H](O)[C@H](O)[C@H](O)CO
maximum recommended daily dose (mmol/kg-bw/day) (TherapeuticCategory: diagnostic aid): 0.512

CCCCC1=NC2(CCCC2)C(=O)N1Cc1ccc(-c2ccccc2-c2nn[nH]n2)cc1
maximum recommended daily dose (mmol/kg-bw/day) [7]: 0.0117

CCCCc1ncc(/C=C(\Cc2cccs2)C(=O)O)n1Cc1ccc(C(=O)O)cc1
maximum recommended daily dose (mmol/kg-bw/day) [7]: 0.0313

NC(=O)OCC(COC(N)=O)c1ccccc1
maximum recommended daily dose (mmol/kg-bw/day) [8]: 0.252

CN(C)C(=N)N=C(N)N
maximum recommended daily dose (mmol/kg-bw/day) (TherapeuticCategory: antidiabetic): 0.387

Cc1ccc(O)c([C@H](CCN(C(C)C)C(C)C)c2ccccc2)c1
maximum recommended daily dose (mmol/kg-bw/day) (TherapeuticCategory: cholinergic (acetyl-choline) receptor blockers): 0.0246

C[N+](C)(C)CCOC(N)=O
maximum recommended daily dose (mmol/kg-bw/day) (TherapeuticCategory: cholinergic, miotic): 0.000365

COc1ccc(OC)c(C(O)C(C)N)c1 (stereo unspecified)
maximum recommended daily dose (mmol/kg-bw/day) [6]: 0.00158

CCOc1ccc2ccccc2c1C(=O)N[C@@H]1C(=O)N2[C@@H]1SC(C)(C)[C@@H]2C(=O)O
maximum recommended daily dose (mmol/kg-bw/day) [2]: 0.241

C[C@@]12CCCCC[C@@H](Cc3ccc(O)cc31)[C@@H]2N
maximum recommended daily dose (mmol/kg-bw/day) [4]: 0.000681

COc1cc(C(=O)NCc2ccc(OCCN(C)C)cc2)cc(OC)c1OC
maximum recommended daily dose (mmol/kg-bw/day) (TherapeuticCategory: antiemetic): 0.043

NC(CSCC(=O)O)C(=O)O (stereo unspecified)
maximum recommended daily dose (mmol/kg-bw/day) (TherapeuticCategory: mucolytic, expectorant): 0.209

O=C1CN(/N=C/c2ccc(-c3ccc([N+](=O)[O-])cc3)o2)C(=O)N1
maximum recommended daily dose (mmol/kg-bw/day) [1]: 0.0212

CC(CN1CC(=O)NC(=O)C1)N1CC(=O)NC(=O)C1 (stereo unspecified)
maximum recommended daily dose (mmol/kg-bw/day) [5]: 0.0155

COc1cc(C)c(/C=C/C(C)=C/C=C/C(C)=C/C(=O)O)c(C)c1C
maximum recommended daily dose (mmol/kg-bw/day) (TherapeuticCategory: antipsoriatic): 0.00383

CC(=O)O[C@H]1C[C@@H]2CC[C@@H]3[C@H](CC[C@@]4(C)[C@H]3C[C@H]([N+]3(C)CCCCC3)[C@@H]4OC(C)=O)[C@@]2(C)C[C@@H]1[N+]1(C)CCCCC1
maximum recommended daily dose (mmol/kg-bw/day) [1]: 0.000136

CC(C)(C)NC(=O)[C@H]1CC[C@H]2[C@@H]3CC[C@H]4NC(=O)C=C[C@]4(C)[C@H]3CC[C@]12C
maximum recommended daily dose (mmol/kg-bw/day) (TherapeuticCategory: prostatic hypertrophy treatment): 0.000224

NC[C@@H]1O[C@H](O[C@H]2[C@@H](O)[C@H](O[C@@H]3[C@@H](O)[C@H](N)C[C@H](N)[C@H]3O[C@H]3O[C@H](CN)[C@@H](O)[C@H](O)[C@H]3N)O[C@@H]2CO)[C@H](N)[C@@H](O)[C@@H]1O
maximum recommended daily dose (mmol/kg-bw/day) [2]: 0.163

CCOC(=O)C(C)(C)Oc1ccc(Cl)cc1
maximum recommended daily dose (mmol/kg-bw/day) (TherapeuticCategory: antihyperlipoproteinemic): 0.137

C1CCN2C[C@@H]3C[C@@H](CN4CCCC[C@@H]34)[C@H]2C1
maximum recommended daily dose (mmol/kg-bw/day) (TherapeuticCategory: oxytocic): 0.0427

C[C@@H](Cc1ccccc1)N(C)Cc1ccccc1
maximum recommended daily dose (mmol/kg-bw/day) (TherapeuticCategory: anorexic): 0.0104

C#CCN(C)Cc1ccccc1
maximum recommended daily dose (mmol/kg-bw/day) [7]: 0.0209

CCC1(c2ccc(N)cc2)CCC(=O)NC1=O (stereo unspecified)
maximum recommended daily dose (mmol/kg-bw/day) [8]: 0.0719

O=C1Nc2ccc(Cl)cc2C(c2ccccc2Cl)=NC1O (stereo unspecified)
maximum recommended daily dose (mmol/kg-bw/day) (TherapeuticCategory: anxiolytic): 0.00052
